Laboratory results published in patent US7008636B2, “2,3,5-substituted biphenyls useful in the treatment of insulin resistance and hyperglycemia” (Wyeth, priority 1998, dated 2006).
Counter-ions that a name gives are not always drawn.

system: not given; assay: not given; settings: not given

Compound | melting point
CCCCCCCCCCCCNC(=O)c1cc(-c2ccc(F)c(Cl)c2)c(OCC(=O)O)c(-c2ccc(F)c(Cl)c2)c1 (as salt: sodium) [Example 24, (3,3″-Dichloro-5′-dodecylcarbamoyl-4,4″-difluoro[1,1′;3′,1″]terphenyl(-2′-yloxy)-acetic acid sodium salt] | 140.2 to 141 °C
CCOP(=O)(COc1c(-c2cccc(C(F)(F)F)c2)cc(C(=O)NCCCCCCCc2ccccc2)cc1-c1cccc(C(F)(F)F)c1)OCC (hydrate or solvate) | 84 to 85 °C
O=C(O)COc1c(-c2cccc(C(F)(F)F)c2)cc(C(=O)NCCCCCCCCc2ccccc2)cc1-c1cccc(C(F)(F)F)c1 [Example 7] | 143 to 145.4 °C
O=C(O)COc1c(-c2ccccc2)cc(C(=O)NCCCCCCCCc2ccccc2)cc1-c1cc(Cl)cc(Cl)c1 [Example 27, [3,5-Dichloro-5′-(8-phenyl-octylcarbamoyl)-[1,1′;3′,1″]terphenyl-2′-yloxy]-acetic acid] | 82 to 83.1 °C
CCCCCCCCCCCCNC(=O)c1cc(-c2cccc(Cl)c2)c(OCC(=O)O)c(-c2cccc(Cl)c2)c1 [Example 33, (3,3″-Dichloro-5′-dodecylcarbamoyl-[1,1′;3′,1″]terphenyl-2′-yloxy)-acetic acid] | 151 to 156 °C
CCCCCCCCCCCCNC(=O)c1cc(Br)c(OCC(=O)O)c(-c2cccc(Cl)c2)c1 [Example 34, (3-Bromo-3′-chloro-5-dodecylcarbamoyl-biphenyl-2-yloxy)-acetic acid] | > 100 °C (dec.)
O=C(O)COc1c(-c2cccc(Cl)c2)cc(C(=O)NCCCCCCCCc2ccccc2)cc1-c1cccc(Cl)c1 [Example 35, [3,3″-Dichloro-5′-(8-phenyl-octylcarbamoyl)-[1,1′;3′,1″]terphenyl-2′-yloxy]-acetic acid] | 165 to 167 °C
O=C(O)COc1c(-c2ccccc2)cc([N+](=O)[O-])cc1-c1ccccc1 [Example 38, (5′-Nitro-[1,1′;3′,1″]terphenyl-2′-yloxy)-acetic acid] | 153.5 to 156 °C

Continued, values first:

melting point | Compound
160 to 165 °C | O=C(NCCCCCCCc1ccccc1)c1cc(-c2cccc(C(F)(F)F)c2)c(OCP(=O)(O)O)c(-c2cccc(C(F)(F)F)c2)c1 (hydrate or solvate) [Example 128, [5′-(7-Phenyl-heptylcarbamoyl)-3,3″-bis-trifluoromethyl-[1,1′:3′,1″]terphenyl-2′-yloxymethyl]-phosphonic acid]
140 to 142 °C | COc1ccc(-c2cc(-c3ccc(C(=O)NCCCCCCCc4ccccc4)cc3)cc(-c3ccc(OC)cc3)c2OCc2ccc(C(=O)O)cc2)cc1 (hydrate or solvate) [Example 133]
89 to 91 °C | O=C(O)c1ccc(COc2c(-c3cccc(C(F)(F)F)c3)cc(C(=O)NCCCCCCCc3ccccc3)cc2-c2cccc(C(F)(F)F)c2)cc1 (hydrate or solvate) [Example 134, 4-[5′-(7-Phenyl-heptylcarbamoyl)-3,3″-bis-trifluoromethyl-[1,1′:3′,1″]terphenyl-2′-yloxymethyl]-benzoic acid]
143 to 145 °C | COc1cc(-c2ccccc2)c(OCC(=O)O)c(-c2ccccc2)c1 [Example 39, (5′-Methoxy-[1,1′;3′,1″]terphenyl-2′-yloxy)acetic acid]
> 50 °C (dec.) | O=C(O)COc1c(-c2ccccc2)cc(Br)cc1-c1ccccc1 [Example 40, (5′-Bromo-[1,1′;3′,1″]terphenyl-2′-yloxy)-acetic acid]
> 68 °C (dec.) | O=C(O)COc1c(-c2ccccc2)cc(-c2ccccc2)cc1-c1ccccc1 [Example 41, [(5′-Phenyl[1,1′:3′,1″-terphenyl]-2′-yl)oxy]acetic acid]
> 120 °C (dec.) | O=C(O)COc1c(-c2ccccc2)cc2oc3ccccc3c2c1-c1ccccc1 [Example 42, (1,3-Diphenyl-dibenzofuran-2-yloxy)-acetic acid]

target: T1, recombinant, human protein tyrosine phosphatase (PTP) 1B (hPTP1B) (Homo sapiens, UniProt P18031); assay: Inhibition of tri-phosphorylated insulin receptor dodecaphosphopeptide dephosphorylation by hPTP1B; assay type: biochemical; settings: 50 μM IR triphosphopeptide substrate, 5 min preincubation and 5 min reaction at 37° C., malachite green-ammonium molybdate phosphate detection
T1 construct: made in house
T1 sequence (P18031 1-435): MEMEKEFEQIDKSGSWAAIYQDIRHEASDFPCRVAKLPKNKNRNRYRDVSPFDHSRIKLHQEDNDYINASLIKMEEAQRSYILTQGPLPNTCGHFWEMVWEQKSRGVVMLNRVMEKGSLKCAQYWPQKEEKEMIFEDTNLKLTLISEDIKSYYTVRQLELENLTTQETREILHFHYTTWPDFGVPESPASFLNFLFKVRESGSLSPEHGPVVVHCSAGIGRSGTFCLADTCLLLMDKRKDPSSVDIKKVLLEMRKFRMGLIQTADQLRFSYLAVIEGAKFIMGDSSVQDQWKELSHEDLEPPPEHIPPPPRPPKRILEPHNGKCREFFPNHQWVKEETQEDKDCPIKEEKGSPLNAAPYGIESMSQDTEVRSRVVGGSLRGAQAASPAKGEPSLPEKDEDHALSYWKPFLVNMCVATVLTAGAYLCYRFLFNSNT

IC50 [µM] | Compound
0.084 | [[5′-[4-[[(7-Phenylheptyl)amino]carbonyl]phenyl]-3,3′-bis(trifluoromethyl)[1,1′:3′,1′-terphenyl]-2′-yl]oxy]acetic acid [Example 132]
